Assay results as given in patent US8815857B2 (Boehringer Ingelheim International GmbH, priority 2011, dated 2014).
In brackets after ≈: the same amount, converted by molar mass.

What was measured:
[1] = target: T1, human soluble guanylate cyclase alpha 1 and beta 1 subunits (sGC) stably expressed in Chinese hamster ovary cells (Homo sapiens, UniProt Q02108+Q02153); assay: sGC cellular activator assay: cGMP in CHO cells expressing human sGC, preincubated with ODQ; type: cell-based; details: 40 microM ODQ preincubation, 30 min at room temperature, presence or absence of 50% human serum not given, read-out: EC50 nM, Activity of Compounds in Cellular Assay
T1 construct: expressed in transfected cells; host or cells: Chinese hamster ovary cells, stably transfected
T1 sequence (Q02108 1-690 partner): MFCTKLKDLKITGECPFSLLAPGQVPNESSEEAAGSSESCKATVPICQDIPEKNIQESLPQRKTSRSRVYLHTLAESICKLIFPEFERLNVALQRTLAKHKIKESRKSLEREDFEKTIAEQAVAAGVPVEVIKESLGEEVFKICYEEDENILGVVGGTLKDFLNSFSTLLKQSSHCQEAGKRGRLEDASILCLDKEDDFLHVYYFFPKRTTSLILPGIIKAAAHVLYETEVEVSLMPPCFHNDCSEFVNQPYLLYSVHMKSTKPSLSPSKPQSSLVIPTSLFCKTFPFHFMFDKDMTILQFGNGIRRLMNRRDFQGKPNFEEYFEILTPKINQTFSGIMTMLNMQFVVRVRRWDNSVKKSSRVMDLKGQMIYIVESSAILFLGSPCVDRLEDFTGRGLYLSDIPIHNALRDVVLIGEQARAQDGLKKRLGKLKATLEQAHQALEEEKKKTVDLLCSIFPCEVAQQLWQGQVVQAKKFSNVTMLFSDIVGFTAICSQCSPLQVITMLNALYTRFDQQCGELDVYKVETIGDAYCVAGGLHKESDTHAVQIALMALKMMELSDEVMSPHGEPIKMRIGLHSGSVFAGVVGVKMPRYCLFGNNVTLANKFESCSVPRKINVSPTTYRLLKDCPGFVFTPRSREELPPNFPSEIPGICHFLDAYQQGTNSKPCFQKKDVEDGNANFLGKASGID
T1 sequence (Q02153 1-619): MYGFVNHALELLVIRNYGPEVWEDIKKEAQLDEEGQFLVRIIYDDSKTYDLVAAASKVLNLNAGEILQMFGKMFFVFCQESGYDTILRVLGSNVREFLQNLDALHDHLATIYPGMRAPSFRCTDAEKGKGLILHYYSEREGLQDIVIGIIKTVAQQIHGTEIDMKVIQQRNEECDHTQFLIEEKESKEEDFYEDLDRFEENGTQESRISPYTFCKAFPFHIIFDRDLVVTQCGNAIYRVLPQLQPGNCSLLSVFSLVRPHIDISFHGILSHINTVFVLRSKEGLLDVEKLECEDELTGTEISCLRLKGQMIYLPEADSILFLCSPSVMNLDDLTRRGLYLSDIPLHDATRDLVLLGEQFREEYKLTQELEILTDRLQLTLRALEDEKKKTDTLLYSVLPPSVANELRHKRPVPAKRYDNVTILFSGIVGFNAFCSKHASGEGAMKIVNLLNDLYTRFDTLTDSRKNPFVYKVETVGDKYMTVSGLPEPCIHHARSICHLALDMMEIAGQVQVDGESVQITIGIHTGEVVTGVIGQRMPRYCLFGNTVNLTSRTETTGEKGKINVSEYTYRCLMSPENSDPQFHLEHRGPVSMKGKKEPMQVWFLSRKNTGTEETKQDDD
Protocol: The sGC cellular activator assay is performed in the presence and absence of 50% human serum (HS) using Chinese hamster ovary cells that have been stably transfected to express the human soluble guanylate cyclase alpha 1 and beta 1 subunits (sGC). Cells are preincubated with 40 microM 1H-[1,2,4]oxadiazolo[4,3-a]quinoxalin-1-one (ODQ), an sGC inhibitor, for one hour in buffer containing 0.1% bovine serum albumin and 3-isobutyl-1-methylxanthine (IBMX). Concentration response curves are prepared for test compounds in DMSO. An intermediate dilution of the compounds is performed in either buffer containing IBMX or type AB HS containing IBMX. Diluted compounds are added to cells and they are incubated at room temperature for thirty minutes. cGMP is measured using a CisBio homogeneous time resolved fluorescence kit and the EC50 is calculated for each compound.

[2] = Assessment of solubility: HT solubility in pION buffer, UV spectrophotometry; details: kinetic from dmso stock
Protocol: Solubility is measured by the following method.
DMSO stock samples at 10 mM concentration are prepared. […] The samples are pierced and 100 ul of thawed samples are transferred into the PCR plate for analysis. Each sample is run in duplicate at each pH (pH 4.5 and 7.4). Up to 95 samples can be run in replicate at 2 pH's+1 DMSO (blank).
Preparation of pH 4.5 and 7.4 Buffers:
• pH 4.5 buffer:—To 12.5 of system solution (pION)qs to 500 mL of distilled water (pH 2.85-2.90); adjust the pH to pH 4.5 with 0.5 N NaOH. • pH 7.4 buffer: To 12.5 of system solution (pION)qs to 500 mL of distilled water (pH 2.85-2.90); adjust the pH to pH 7.4 with 0.5N NaOH. […] Procedure: Preparation of UV Blank Plate:
75 ul of buffer (pH 7.4 or pH 4.5) is added to UV plate followed by addition of 70 ul of N-propanol. The solution is mixed and the blank spectrum is read using spectrophotometer.
Preparation of Reference UV Plate:
10 ul of each stock sample (including DMSO control) is added to 190 ul of N-propanol to prepare the reference stock plate. Reference stock samples are mixed and 5 ul of each stock sample is added to UV blank plate after it is read spectrophotometrically. The reference stock sample is mixed with blank solution in UV plate and the reference spectrum is read using UV spectrophotometer.
Preparation of Sample for Incubation:
Solubility at pH 7.4:6 ul of each stock sample (including DMSO control) is added to the storage plate containing 600 ul of pH 7.4 buffer, mixed and incubated for 16-19 h. The plate is sealed well during the incubation process. The DMSO content in the sample is 1.0%. The concentration in deep well plates is 100 uM
6 ul of each stock sample (including DMSO control) is added to the deep well plate containing 600 ul of pH 4.5 buffer, mixed and incubated for 16-19 h. The plate is sealed well during the incubation process. The DMSO content in the sample is 1.0%. The concentration in deep well plates is 100 uM
Preparation of Sample UV Plate:
At the end of the incubation period, 100 uL of sample from the storage plate is vacuum filtered using a filter plate. This step wets the filters and the filtrate is discarded. Another 200 ul of the sample from the deep well plate is vacuum filtered using the same filter block but a clean filter plate. 75 ul of the filtrate from the filter plate is transferred to a UV sample plate. 75 ul of N-propanol is added to this UV plate. The solution is mixed and the spectrum is read using the UV spectrophotometer.
The spectra collected for blank, reference and sample from 250-498 nm is analyzed using pION software. If the sample precipitates out, the solubility is reported as XX μg/ml.

[3] = pH 6.8, aqueous buffer, Solubility (pH 6.8), pH 6.8
[4] = pION system solution buffer, pH 4.5, pH 4.5, aqueous buffer, Solubility (pH 4.5), pH 4.5 buffer, 16-19 h incubation, 1.0% DMSO

SMILES	EC50 [1] [nM]	solubility [2, 3] [µg/mL]	solubility [2, 4] [µg/mL]	solubility ([2]; pION system solution buffer, pH 7.4, pH 7.4, aqueous buffer, Solubility (pH 7.4), pH 7.4 buffer, 16-19 h incubation, 1.0% DMSO) [µg/mL]
Cc1ccc(OCc2ccc(C(=O)N(C)Cc3ncc[nH]3)cc2C)c(-c2csc(N3C[C@H]4CC[C@@H](C3)[C@H]4C(=O)O)n2)c1 [Compound 334]	160	24 (≈ 41 µM)	11 (≈ 18.8 µM)	–
Cc1ccc(OCc2ccc(C(=O)N(C)CCO)cc2C)c(-c2csc(N3C[C@H]4CC[C@@H](C3)[C@H]4C(=O)O)n2)c1 [Compound 297]	100	63 (≈ 115 µM)	1.7 (≈ 3.09 µM)	–
Cc1ccc(OCc2ccc(CN3CCOCC3)cc2C)c(-c2csc(N3CC[C@]4(C(=O)O)C[C@@H]4C3)n2)c1 [Compound 220]	42	4.8 (≈ 8.99 µM)	42 (≈ 78.7 µM)	4 (≈ 7.49 µM)
CCN(C)C(=O)c1ccc(COc2ccc(C)cc2-c2csc(N3C[C@H]4CC[C@@H](C3)[C@H]4C(=O)O)n2)c(C)c1 [Compound 303]	11	36 (≈ 67.5 µM)	0.13 (≈ 0.244 µM)	–
Cc1ccc(OCc2ccc(CN3CCS(=O)(=O)CC3)cc2C)c(-c2csc(N3CC4(CC4C(=O)O)C3)n2)c1 (stereo not shown) [Compound 252]	260	0.2 (≈ 0.352 µM)	< 0.1	–
Cc1ccc(OCc2ccc(C(=O)N(C)C)cc2C)c(-c2csc(N3C[C@H]4CC[C@@H](C3)[C@H]4C(=O)O)n2)c1 [Compound 304]	23	60 (≈ 115 µM)	< 0.1	–
Cc1ccc(OCc2ccc(C(=O)N3CCCOCC3)cc2C)c(-c2csc(N3C[C@H]4CC[C@@H](C3)[C@H]4C(=O)O)n2)c1 [Compound 316]	15	64 (≈ 111 µM)	< 0.1	–
Cc1ccc(OCc2ccc(C(=O)N3CCCCC3)cc2C)c(-c2csc(N3CC[C@@]4(C(=O)O)C[C@H]4C3)n2)c1 [Compound 226]	13	15 (≈ 27.5 µM)	< 0.1	–
Cc1ccc(OCc2ccc(C(=O)N3CCC(C#N)CC3)cc2C)c(-c2csc(N3C[C@H]4CC[C@@H](C3)[C@H]4C(=O)O)n2)c1 [Compound 323]	51	39 (≈ 66.7 µM)	< 0.1	–
CO[C@@H]1CCN(C(=O)c2ccc(COc3ccc(C)cc3-c3csc(N4C[C@H]5CC[C@@H](C4)[C@H]5C(=O)O)n3)c(C)c2)C1 [Compound 329]	23	56 (≈ 97.3 µM)	< 0.1	–
Cc1ccc(OCc2c(C)cc(C(=O)N3CCN(C)C(=O)C3)cc2C)c(-c2csc(N3C[C@H]4CC[C@@H](C3)[C@H]4C(=O)O)n2)c1 [Compound 284]	100	66 (≈ 109 µM)	0.65 (≈ 1.08 µM)	–
Cc1ccc(OCc2ccc(C(=O)N3CCCCC3)cc2C)c(-c2csc(N3CC(CC(=O)O)C3)n2)c1 [Compound 251]	240	56 (≈ 108 µM)	0.15 (≈ 0.289 µM)	–
Cc1ccc(OCc2ccc(C(=O)N3CC[C@H](CO)C3)cc2C)c(-c2csc(N3C[C@H]4CC[C@@H](C3)[C@H]4C(=O)O)n2)c1 [Compound 325]	29	59 (≈ 102 µM)	0.17 (≈ 0.295 µM)	–
Cc1ccc(OCc2ccc(C(=O)N3C[C@H]4CC[C@@H](C3)O4)cc2C)c(-c2csc(N3C[C@H]4CC[C@@H](C3)[C@H]4C(=O)O)n2)c1 [Compound 340]	19	0.26 (≈ 0.442 µM)	< 0.1	–
Cc1ccc(OCc2ccc(C(=O)N3CC[C@H](O)C3)cc2C)c(-c2csc(N3C[C@H]4CC[C@@H](C3)[C@H]4C(=O)O)n2)c1 [Compound 313]	120	78 (≈ 139 µM)	1.3 (≈ 2.31 µM)	–
Cc1ccc(OCc2ccc(CN3CCN(C(=O)C4CC4)CC3)cc2C)c(-c2csc(N3C[C@H]4CC[C@@H](C3)[C@H]4C(=O)O)n2)c1 [Compound 228]	39	0.42 (≈ 0.683 µM)	6.1 (≈ 9.92 µM)	–
